According to patent US5061706A, “2,3-quinoxalinediones for use as neuroleptics” (priority 1988, dated 1991):
Values after ≈ are worked out from the molar mass of the structure shown. One block for each molecule: values may come before it.

Key:
[1] = test system: NMDA (N-methyl-D-aspartate) receptors; settings: in words, literature; cited from earlier work
kainate receptors = settings: in words, literature; cited from earlier work
quisqualate receptors = settings: in words, literature; cited from earlier work
[2] = target: quisqualic acid stimulated 3H-GABA efflux from cultured cortical neurones (quisqualate receptors); experiment: Release experiments: antagonism of quisqualic acid stimulated 3H-GABA efflux from cultured cortical neurones; format: cell-based, mouse; settings: Table 1 Ki; test not stated
Description: The pharmacological properties of the compounds of the present invention can be illustrated by determining their capability for displacing radioactively labelled 2-amino-3-hydroxy-5-methyl-4-isoxazolepropionic acid (AMPA) from the quisqualate type receptors. […]
Cerebral cortices of 16 day old mouse embryos are chopped in 0.4×0.4 mm cubes. The tissue is dissociated by mild trypsinization (0.1% (wt/vol) trypsin, 37° C., 15 min) and subsequently inoculated into poly-L-lysine-coated 3 cm Petri dishes containing a slightly modified DMEM (24.5 mM KCl, 30 mM glucose) supplemented with p-aminobenzoate (7 μM), insulin (100 mU/1) and 10% (vol/vol) horse serum. Cells are maintained in culture for 5-7 days with the addition of the antimitotic agent cytosine arbinoside (40 μM) from day 2 in vitro to prevent glial proliferation. For further details and references see Drejer et al. (Exp. Brain Res. 47, 259 (1982)).
Release experiments are performed using the model described by Drejer et al. (Life Sci. 38, 2077 (1986)). Cerebral cortex interneurons cultured in Petri dishes (30 mm) are added 100 μM gamma-vinyl-GABA one hour before the experiment in order to inhibit degradation of GABA in the neurons. 30 min. before the experiment 5 μCi ^3 H-GABA is added to each culture and after this preloading period the cell monolayer at the bottom of the dish is covered with a piece of nylon mesh to protect the cells against mechanical damage and to facilitate dispersion of medium over the cell layer. The preloading medium is removed and the Petri dishes are placed in a superfusion system. This system consists of a peristaltic pump continuously delivering thermostated 37° C. superfusion medium (HEPES buffered saline (HBS): 10 mM HEPES, 135 mM NaCl, 5 mM KCl, 0.6 mM MGSO4, 1.0 mM CaCl2 and 6 mM D-glucose; pH 7.4) from a reservoir to the top of the slightly tilted Petri dish. The medium is continuously collected from the lower part of the dish and delivered to a fraction collector. Initially, the cells are superfused with HBS for 15 min. (flow rate 2 ml/min.). The cells are stimulated for 30 sec. every 4 min. by changing the superfusion medium from HBS to a corresponding medium containing quisqualate and test compound. The release of ^3 H-GABA in the presence of quisqualate (stimulated release in cpm) are corrected for the mean basal release (Cpm) before and after the stimulation.

[3] = target: quisqualate type receptors; experiment: 3H-AMPA binding (displacement of 3H-AMPA from quisqualate type receptors, rat cerebral cortical membrane homogenate); settings: concentration causing 50% displacement of specific 3H-AMPA binding; Hill analysis; pH 7.1, 0° C., 30 min
Description: The pharmacological properties of the compounds of the present invention can be illustrated by determining their capability for displacing radioactively labelled 2-amino-3-hydroxy-5-methyl-4-isoxazolepropionic acid (AMPA) from the quisqualate type receptors.
The displacement activity of the compounds may be shown by determining the IC50 value which represents the concentration (μg/ml) which causes a displacement of 50% of the specific binding of ^3 H-AMPA.
500 μl of thawed rat cerebral cortical membrane homogenate in Tris-HCl (30 mM), CaCl2 (2.5 mM) and KSCN (100 mM) pH 7.1 were incubated at 0° C. for 30 min. with 25 μl ^3 H-AMPA (5 nM final concentration) and the test compound and buffer. Nonspecific binding was determined by incubation with L-glutamic acid (600 μM final concentration). The binding reaction was terminated by adding 5 ml of ice-cold buffer followed by filtration through Whatman GF/C glass fibre filters and 2×5 ml wash with ice-cold buffer. Bound radioactivity was measured by scintillation counting. IC50 was determined by Hill analysis of at least four concentrations of test compound.

SMILES: O=C(O)[C@@H]1CCCN[C@H]1C(=O)O (relative stereo) [trans-2,3-PDA, trans-2,3-piperidine dicarboxylic acid]
agonist or antagonist activity on NMDA receptors [1]: strong to moderate agonist activity

SMILES: NC(CCC(=O)NCC(=O)O)C(=O)O (stereo not drawn) [3-glutamyl-glycine]
antagonism / inhibition of binding at kainate receptors (kainate receptors): some selectivity for kainate receptors

SMILES: Cc1onc(O)c1CC(N)C(=O)O (stereo not drawn) [AMPA, 2-amino-3-hydroxy-5-methyl-4-isoxazolepropionic acid]
agonist or antagonist activity on quisqualate receptors (quisqualate receptors): potent agonists

SMILES: N[C@H](CCCC(=O)O)C(=O)O [D-2-amino-adipic acid]
agonist or antagonist activity on NMDA receptors [1]: moderate antagonist activity

SMILES: N[C@H](CCCCCP(=O)(O)O)C(=O)O [D-APH, 2-amino-7-phosphonoheptanoic acid]
agonist or antagonist activity on NMDA receptors [1]: most potent and selective antagonists

SMILES: N[C@H](CCCP(=O)(O)O)C(=O)O [D-APV, 2-amino-5-phosphono-valeric acid]
agonist or antagonist activity on NMDA receptors [1]: most potent and selective antagonists

SMILES: N[C@H](CCC(=O)O)C(=O)O [D-glutamic acid]
agonist or antagonist activity on NMDA receptors [1]: strong to moderate agonist activity

Ki [2]: 0.08 µg/mL (≈ 0.295 µM)
IC50 [3]: 0.15 µg/mL (≈ 0.553 µM)
SMILES: N#Cc1cc2c(cc1C(F)(F)F)[nH]c(=O)c(=O)n2O [Example 6 d, 7-Cyano-1-hydroxy-6-trifluoromethylquinoxaline-2,3(1H,4H)-dione]

Ki [2]: 0.12 µg/mL (≈ 0.428 µM)
IC50 [3]: 0.37 µg/mL (≈ 1.32 µM)
SMILES: O=c1[nH]c2cc(C(F)(F)F)c(Cl)cc2n(O)c1=O [Example 30 d, 7-chloro-1-hydroxy-6-trifluoromethylquinoxaline-2,3(1H,4H)-dione]

Ki [2]: 0.02 µg/mL (≈ 0.0615 µM)
IC50 [3]: 0.14 µg/mL (≈ 0.43 µM)
SMILES: NS(=O)(=O)c1cc2c(cc1C(F)(F)F)[nH]c(=O)c(=O)n2O [Example 33 d, 1-Hydroxy-7-sulfamoyl-6-trifluoromethylquinoxaline-2,3(1H,4H)-dione]

Ki [2]: 0.27 µg/mL (≈ 1.1 µM)
IC50 [3]: 0.09 µg/mL (≈ 0.367 µM)
SMILES: CC(=O)c1cc2c(cc1C#N)[nH]c(=O)c(=O)n2O [Example 34 e, 7-Acetyl-6-cyano-1-hydroxyquinoxaline-2,3(1H,4H)-dione]

SMILES: CCOC(=O)CC[C@H](N)C(=O)OCC [GDEE, Glutamic acid diethyl ester]
agonist or antagonist activity on quisqualate receptors (quisqualate receptors): selective but very weak antagonist

SMILES: N[C@H](C(=O)O)c1cc(=O)[nH]o1 [Ibotenic acid]
agonist or antagonist activity on NMDA receptors [1]: strong to moderate agonist activity

SMILES: N[C@@H](CCC(=O)O)C(=O)O [L-glutamic acid]
agonist or antagonist activity on quisqualate receptors (quisqualate receptors): potent agonists

SMILES: N[C@@H](CCS(=O)(=O)O)C(=O)O [L-homocysteic acid]
agonist or antagonist activity on NMDA receptors [1]: strong to moderate agonist activity

SMILES: N[C@H](CCC[C@H](N)C(=O)O)C(=O)O [diaminopimelic acid]
agonist or antagonist activity on NMDA receptors [1]: moderate antagonist activity

SMILES: N[C@@H](Cn1oc(=O)[nH]c1=O)C(=O)O [quisqualic acid]
agonist or antagonist activity on quisqualate receptors (quisqualate receptors): activated selectively
